Structures can show the parent of a compound that is named as a salt.
Tests used:
SW480TR = experiment: MTT cytotoxicity assay and reversal of MDR in SW480TR; format: cell-based, human
Text: (§1) A panel of parental cancer cell line and their daughter resistant cell lines, displaying MDR phenotype were used in this study. Human ovarian cancer cell line SKOV-3, breast cancer cell line MCF-7 and colon cancer cell line SW480, the osteosarcoma cell line U-2OS, KHOS, uterine sarcoma cell line MESSA and its doxorubicin selected drug resistant cell line MESSA/Dx5, non-small cell lung cancer cell line H-69 and its doxorubicin selected drug resistant cell line H-69AR (overexpress MRP1) were obtained from the ATCC (Rockville, Md.). Dr. Efstathios Gonos (Institute of Biological Research & Biotechnology, Athens, Greece) provided the doxorubicin resistant U-2OS R2 (referred in the text below as U-2OSDR), KHOS R2 cell lines. Dr. Erasmus Schneider (Wadsworth Center, Albany) provided the mitoxantrane resistant breast cancer MCF-7/MX (overexpress BCRP) cell line. All the cell lines were cultured in RPMI 1640 (Invitrogen, Carlsbad, Calif.) supplemented with 10% fetal bovine serum, 100-units/ml penicillin and 100 μg/ml streptomycin (Invitrogen). Cells were incubated at 37° C. in 5% CO2-95% air atmosphere and passaged when near confluent monolayers were achieved using 2% trypsin-EDTA solution. […] The fresh chemotherapy drugs were obtained from the pharmacy at the Massachusetts General Hospital and stored at −20° C.
(§2) To evaluate for reversal of Pgp-mediated MDR, SKOV-3TR, MCF-7adr and SW480TR cell lines were seeded into 96-well tissue culture plate at 2,000 cells per well with varying concentrations of chemotherapy drugs and NSC23925b for 6 days. Cell proliferation IC50 (concentration required for 50% inhibition) and MDR reversal IC50 were determined from dose-response curves carried out in triplicate in 96-well plate. Fold of reverse resistance for individual drugs were defined as the IC50 of MDR cells without NSC23925b treatment divided by the IC50 of MDR cells treated with NSC23925b. […] Drug cytotoxicity was assessed in vitro using the MTT assay as previously described. […] Response curves were fitted with use of GraphPad PRISM 4 software (GraphPad Software).
(§3) MCF-7adr and SW480TR cells were treated with paclitaxel (FIGS. 2A-B), doxorubicin (FIGS. 2C-D) or mitoxantrane (FIGS. 2E-F) and NSC23925b in RPMI1640 complete media at the indicated concentrations. The relative sensitivity of each line to the indicated drugs was determined by MTT analysis 6 days post-treatment.

Pgp = biological target: T1, Pgp (Homo sapiens, UniProt P08183); experiment: Calcein AM drug efflux fluorescence microscopy assay (Vybrant multi-drug resistance kit); format: cell-based
T1 construct: multidrug resistant cells expressing high levels of Pgp rapidly extrude non-fluorescent calcein AM from the plasma membrane; endogenous in cells; host or cells: MCF-7adr and SW480TR drug-resistant cells
T1 sequence (P08183 whole entry): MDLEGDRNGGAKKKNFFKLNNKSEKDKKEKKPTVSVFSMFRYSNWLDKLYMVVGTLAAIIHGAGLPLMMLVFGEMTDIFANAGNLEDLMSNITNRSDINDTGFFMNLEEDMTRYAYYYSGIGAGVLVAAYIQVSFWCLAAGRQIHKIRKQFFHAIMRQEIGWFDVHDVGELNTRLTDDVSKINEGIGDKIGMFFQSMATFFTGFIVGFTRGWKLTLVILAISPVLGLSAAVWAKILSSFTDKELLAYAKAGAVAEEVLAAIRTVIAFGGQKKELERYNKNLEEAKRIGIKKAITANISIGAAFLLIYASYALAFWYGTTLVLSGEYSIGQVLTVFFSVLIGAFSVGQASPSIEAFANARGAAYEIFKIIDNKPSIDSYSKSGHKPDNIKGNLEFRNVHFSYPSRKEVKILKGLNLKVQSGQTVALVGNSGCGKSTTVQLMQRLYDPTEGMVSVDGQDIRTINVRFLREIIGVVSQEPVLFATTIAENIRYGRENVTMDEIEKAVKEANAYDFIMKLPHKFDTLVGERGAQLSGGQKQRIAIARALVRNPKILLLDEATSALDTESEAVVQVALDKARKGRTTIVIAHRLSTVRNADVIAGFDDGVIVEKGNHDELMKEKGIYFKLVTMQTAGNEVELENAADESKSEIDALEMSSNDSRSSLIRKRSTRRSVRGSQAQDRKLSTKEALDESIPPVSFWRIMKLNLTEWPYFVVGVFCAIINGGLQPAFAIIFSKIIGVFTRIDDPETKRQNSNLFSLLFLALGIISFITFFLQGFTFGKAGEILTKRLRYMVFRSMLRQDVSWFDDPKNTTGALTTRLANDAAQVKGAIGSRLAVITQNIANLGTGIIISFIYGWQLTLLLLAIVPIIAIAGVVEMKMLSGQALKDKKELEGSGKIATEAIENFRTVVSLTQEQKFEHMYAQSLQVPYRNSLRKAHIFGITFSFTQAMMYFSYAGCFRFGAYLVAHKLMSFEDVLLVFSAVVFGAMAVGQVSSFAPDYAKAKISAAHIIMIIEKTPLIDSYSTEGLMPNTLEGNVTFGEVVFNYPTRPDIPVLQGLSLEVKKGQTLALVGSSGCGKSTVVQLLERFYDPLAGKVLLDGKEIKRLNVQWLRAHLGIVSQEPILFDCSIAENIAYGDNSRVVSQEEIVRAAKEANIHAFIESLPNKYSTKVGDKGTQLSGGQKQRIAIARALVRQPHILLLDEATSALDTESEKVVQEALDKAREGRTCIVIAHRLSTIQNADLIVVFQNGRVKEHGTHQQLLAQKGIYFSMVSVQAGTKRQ
Text: The Vybrant™ multi-drug resistance assay kit (Invitrogen/Molecular Probes) was used to measure drug efflux properties of different resistant cell lines. This assay utilizes the fluorogenic dye calcein acetoxymethyl ester (calcein AM) as a substrate for efflux activity of Pgp or other membrane pump ABC proteins. Calcein AM is taken up by cells and hydrolyzed by cytoplasmic esterases to fluorescent calcein. Calcein […] is well retained in the cytosol. However, multidrug resistant cells expressing high levels of Pgp rapidly extrude non-fluorescent calcein AM from the plasma membrane, reducing accumulation of fluorescent calcein in the cytosol. Studies were carried out as described. In brief, drug resistant cells (5,000 cells per well) were cultured in 96-well plate for 24 hours. Triplicated cultures of cells were treated with different concentrations of NSC23925b for one hour and then incubated in calcein AM in 100 μl total volume. After 30 minutes, images were acquired by Nikon Eclipse Ti-U fluorescence microscope (Nikon Corp.) equipped with a SPOT RT digital camera (Diagnostic Instruments, Inc., Sterling Heights, Mich.).
The effect of NSC23925b on the uptake and efflux of calcein AM in MCF-7adr and SW480TR was determined. […] The calcein-AM assay was optimized and performed using the Vybrant Multidrug Resistance kit. Cells were seeded at 50,000 cells/well (100 μl of culture medium) in 96-well plate and incubated for 24 hours. MCF-7adr cells in triplicate were treated with NSC23925b for one hour and then incubated in calcein AM for 30 minutes. The cell fluorescence images were acquired by a fluorescence microscope. NSC23925b has a prominent effect on the accumulation of calcein AM in these cells starting at a concentration as low as 1 nM.

[1] = Solubility in organic solvents; format: physicochemical
MCF-7adr = experiment: MTT cytotoxicity assay and reversal of MDR in MCF-7adr; format: cell-based, human
Text: as §1, §2, §3

Q: For COc1ccc(-c2cc([C@H](O)[C@H]3CCCCN3)c3ccccc3n2)cc1 [NSC23925b, (2-(4-methoxyphenyl)quinolin-4-yl)(piperidin-2-yl)methanol hydrochloride], which “fold-reversal of drug resistance” value (SW480TR; Doxorubicin, NSC23925b 0.1 μM) is on record?
A: 1.7 fold

Q: What about the “fold-reversal of drug resistance” value (SW480TR; Doxorubicin, NSC23925b 0.5 μM) of the same compound?
A: 3 fold

Q: And the “fold-reversal of drug resistance” value (SW480TR; Doxorubicin, NSC23925b 1 μM)?
A: 8 fold

Q: And the “reverse paclitaxel, doxorubicin, and mitoxantrane resistance” value (SW480TR; MTT 6 days post-treatment)?
A: able to reverse

Q: And the “fold-reversal of drug resistance” value (SW480TR; Mitoxantrane, NSC23925b 0.1 μM)?
A: 1.2 fold

Q: And the “fold-reversal of drug resistance” value (SW480TR; Mitoxantrane, NSC23925b 0.5 μM)?
A: 3 fold

Q: And the “fold-reversal of drug resistance” value (SW480TR; Mitoxantrane, NSC23925b 1 μM)?
A: 14 fold

Q: And the “fold-reversal of drug resistance” value (SW480TR; Paclitaxel, NSC23925b 0.1 μM)?
A: 1.3 fold

Q: What about the “fold-reversal of drug resistance” value (SW480TR; Paclitaxel, NSC23925b 0.5 μM) of the same compound?
A: 8 fold

Q: And the “fold-reversal of drug resistance” value (SW480TR; Paclitaxel, NSC23925b 1 μM)?
A: 13 fold

Q: What about the “lowest concentration with prominent effect on accumulation of calcein AM” value (Pgp; MCF-7adr and SW480TR cells) of the same compound?
A: 1 nM

Q: And the “intracellular accumulation of calcein AM” value (Pgp; MCF-7adr and SW480TR, 1 h pretreatment, calcein AM 30 minutes)?
A: increase intracellular accumulation of calcein AM in these cell lines in a dose-dependent manner

Q: What about the “near maximal reversal of accumulation deficit” value (Pgp; calcein AM, MCF-7adr and SW480TR cells) of the same compound?
A: 500 nM

Q: And the EC50 (Pgp; calcein AM, MCF-7adr and SW480TR cells, read-out: Half-maximal reversal of accumulation deficit)?
A: 100 nM

Q: What about the “solubility in other solvents” value ([1]; either, ethyl acetate, chloroform, dichloromethane, acetone, tetrahydrofuran, cyclohexane, cyclopentane, hexanes, pentane) of the same compound?
A: not soluble

Q: What about the solubility in methanol ([1]; methanol) of the same compound?
A: soluble

Q: What about the “5 milligram solubility in methanol” value ([1]; volume of methanol for 5 milligram) of the same compound?
A: 450 µL

Q: What about the “fold-reversal of drug resistance” value (MCF-7adr; Doxorubicin, NSC23925b 0.1 μM) of the same compound?
A: 1.4 fold

Q: And the “fold-reversal of drug resistance” value (MCF-7adr; Doxorubicin, NSC23925b 0.5 μM)?
A: 4 fold

Q: And the “fold-reversal of drug resistance” value (MCF-7adr; Doxorubicin, NSC23925b 1 μM)?
A: 15 fold

Q: What about the “reverse paclitaxel, doxorubicin, and mitoxantrane resistance” value (MCF-7adr; MTT 6 days post-treatment) of the same compound?
A: able to reverse

Q: And the “fold-reversal of drug resistance” value (MCF-7adr; Mitoxantrane, NSC23925b 0.1 μM)?
A: 1.1 fold

Q: And the “fold-reversal of drug resistance” value (MCF-7adr; Mitoxantrane, NSC23925b 0.5 μM)?
A: 3 fold

Q: And the “fold-reversal of drug resistance” value (MCF-7adr; Mitoxantrane, NSC23925b 1 μM)?
A: 6 fold

Q: What about the “fold-reversal of drug resistance” value (MCF-7adr; Paclitaxel, NSC23925b 0.1 μM) of the same compound?
A: 1.3 fold

Q: What about the “fold-reversal of drug resistance” value (MCF-7adr; Paclitaxel, NSC23925b 0.5 μM) of the same compound?
A: 4 fold

Q: What about the “fold-reversal of drug resistance” value (MCF-7adr; Paclitaxel, NSC23925b 1 μM) of the same compound?
A: 12 fold

Reference: patent publication US20140371165A1, “Identification of NSC23925 Isomers to Reverse Multidrug Resistance in Human Cancers” (priority 2012, published 2014)
